Activity calls are given as the source filed them. The rule behind the calls is not given here.
Legend:
HeLa = experiment: Antiproliferative activity against human HeLa cells assessed as cell growth inhibition incubated for 48 hrs by MTT assay; format: functional, cell-based
BXPC-3 = experiment: Antiproliferative activity against human BXPC-3 cells assessed as cell growth inhibition incubated for 48 hrs by MTT assay; format: functional, cell-based; conditions: BXPC-3, 48 h
[1] = target: Tyrosine-protein kinase JAK1 (Homo sapiens, UniProt P23458); experiment: Inhibition of JAK1 (unknown origin) using Poly-(Glu,Tyr 4:1) peptide as substrate in presence of ATP by ADP-Glo reagent based assay
[2] = target: Tyrosine-protein kinase JAK3 (Homo sapiens, UniProt P52333)
Description: Inhibition of JAK3 (unknown origin) using Poly-(Glu,Tyr 4:1) peptide as substrate in presence of ATP by ADP-Glo reagent based assay

[3] = Cytotoxicity against human ARPE-19 cells assessed as cell growth inhibition incubated for 48 hrs by MTT assay; format: toxicity, cell-based
[4] = Cytotoxicity against human HaCaT cells assessed as cell growth inhibition incubated for 48 hrs by MTT assay; format: toxicity, cell-based
[5] = Antiproliferative activity against human HCT-8/VCR cells assessed as cell growth inhibition incubated for 48 hrs by MTT assay; format: functional, cell-based
[6] = Antiproliferative activity against human A549/DDP cells assessed as cell growth inhibition incubated for 48 hrs by MTT assay; format: functional, cell-based
[7] = Resistance index, ratio of IC50 for antiproliferative activity against human A2780T cells to IC50 for antiproliferative activity against human A2780 cells; format: functional
PC-3 = experiment: Antiproliferative activity against human PC-3 cells assessed as cell growth inhibition incubated for 48 hrs by MTT assay; format: functional, cell-based; conditions: PC-3, 48 h
[8] = Antiproliferative activity against Chinese hamster CHO-K1 cells assessed as cell growth inhibition incubated for 48 hrs by MTT assay; format: toxicity, cell-based, Cricetulus griseus
[9] = AUC (0 to infinity) in CD-1 mouse at 1 mg/kg,iv measured upto 24 hrs by HPLC-MS/MS analysis; format: ADME, organism-based; design: dose 1 mg/kg, time < 24 hrs, route iv; conditions: in vivo
[10] = Half life in CD-1 mouse at 1 mg/kg,iv measured upto 24 hrs by HPLC-MS/MS analysis; format: ADME, organism-based; conditions: in vivo
[11] = Cmax in CD-1 mouse at 1 mg/kg,iv measured upto 24 hrs by HPLC-MS/MS analysis; format: ADME, organism-based; design: dose 1 mg/kg, time < 24 hrs, route iv; conditions: in vivo
[12] = AUC (0 to t) in CD-1 mouse at 10 mg/kg,ip measured upto 24 hrs by HPLC-MS/MS analysis; format: ADME, organism-based; design: dose 10 mg/kg, time < 24 hrs, route ip; conditions: in vivo
[13] = AUC (0 to infinity) in CD-1 mouse assessed as AUC (0 to infinity) of metabolite at 10 mg/kg,ip measured upto 24 hrs by HPLC-MS/MS analysis; format: ADME, organism-based; design: time < 24 hrs, dose 10 mg/kg, route ip; conditions: in vivo
[14] = MRT (0 to t) in CD-1 mouse assessed as MRT (0 to t) of metabolite at 10 mg/kg,ip measured upto 24 hrs by HPLC-MS/MS analysis; format: ADME, organism-based; conditions: in vivo
[15] = MRT (0 to infinity) in CD-1 mouse assessed as MRT (0 to infinity) of metabolite at 10 mg/kg,ip measured upto 24 hrs by HPLC-MS/MS analysis; format: ADME, organism-based; conditions: in vivo
Tubulin = Tubulin (Sus scrofa, UniProt P02554+P02550); experiment: Inhibition of porcine brain tubulin polymerization measured for 30 mins in presence of GTP by microplate reader assay; format: tissue-based
Tubulin (Homo sapiens) = Tubulin (Homo sapiens) (UniProt P68371+Q9H4B7+P0DPH7+P68366+Q13509+Q71U36+P04350+Q3ZCM7+P07437+P68363+Q9BQE3+Q6PEY2+Q13885+Q9BVA1+Q9BUF5); experiment: Disruption of microtubule assembly in human A549 cells at 0.1 uM incubated for 6 hrs by Hoechst33342 staining based immunofluorescence analysis; format: cell-based
[16] = target: T1, JAK2-STAT3 (Homo sapiens) (UniProt O60674+P40763); experiment: Inhibition of JAK2/STAT3 signalling pathway in human A549 cells assessed as downregulation of JAK2 phosphorylation incubated for 24 hrs by Western blotting analysis; format: cell-based
[17] = target: T1, JAK2-STAT3 (Homo sapiens); experiment: Inhibition of JAK2/STAT3 signalling pathway in human A549 cells assessed as downregulation of STAT3 phosphorylation incubated for 24 hrs by Western blotting analysis; format: cell-based
A549 [18] = experiment: Induction of cell cycle arrest in human A549 cells assessed as accumulation of cells at G2/M phase at 5 nM incubated for 24 hrs by PI/RNase staining based flow cytometry analysis; format: functional
A549 [19] = experiment: Induction of cell cycle arrest in human A549 cells assessed as accumulation of cells at G2/M phase at 10 nM incubated for 24 hrs by PI/RNase staining based flow cytometry analysis; format: functional
A549 [20] = experiment: Induction of apoptosis in human A549 cells assessed as early apoptotic cells at 10 nM incubated for 24 hrs by Annexin V-FITC/PI staining based flow cytometry (reference value: 4.61 %); format: functional
A549 [21] = experiment: Induction of apoptosis in human A549 cells assessed as late apoptotic cells at 5 nM incubated for 24 hrs by Annexin V-FITC/PI staining based flow cytometry (reference value: 1.72 %); format: functional
A549 [22] = experiment: Induction of apoptosis in human A549 cells assessed as late apoptotic cells at 20 nM incubated for 24 hrs by Annexin V-FITC/PI staining based flow cytometry (reference value: 1.72 %); format: functional
A549 [23] = experiment: Induction of apoptosis in human A549 cells assessed as necrotic cells at 10 nM incubated for 24 hrs by Annexin V-FITC/PI staining based flow cytometry (reference value: 0.67 %); format: functional
A549 [24] = experiment: Induction of apoptosis in human A549 cells assessed as necrotic cells at 20 nM incubated for 24 hrs by Annexin V-FITC/PI staining based flow cytometry (reference value: 0.67 %); format: functional
A549 [25] = experiment: Induction of apoptosis in human A549 cells assessed as increase in intracellular ROS level at 5 to 20 nM incubated for 16 hrs by DCFH-DA staining based fluorescence microscopy; format: functional, cell-based; conditions: dose 5-20 nM
A549 [26] = experiment: Induction of apoptosis in human A549 cells assessed as reduction of mitochondrial membrane potential at 5 to 20 nM incubated for 16 hrs by JC-1 staining based fluorescence microscopy; format: functional, cell-based; conditions: dose 5-20 nM
A549 [27] = experiment: Induction of apoptosis in human A549 cells assessed as reduction of mitochondrial membrane potential incubated for 16 hrs by JC-1 staining based flow cytometry analysis; format: functional, cell-based
A549 [28] = experiment: Induction of mitochondrial membrane potential loss in human A549 cells by measuring green fluorescence at 10 nM incubated for 16 hrs by JC-1 staining based flow cytometry analysis (reference value: 0.7 %); format: functional
A549 [29] = experiment: Antitumor activity against human A549 cells xenografted in Balb/c mouse assessed as tumor size at 50 mg/kg,ip administration measured after 31 days; format: functional; conditions: time 31 day
[30] = Toxicity in Balb/c mouse xenografted with human A549 cells assessed as effect on spleen morphology at 50 mg/kg,ip administration measured after 31 days by Hematoxylin-eosin staining based microscopy; format: organism-based; conditions: in vivo, 744 h, time 31 day
[31] = Toxicity in Balb/c mouse xenografted with human A549 cells assessed as effect on kidney morphology at 50 mg/kg,ip administration measured after 31 days by Hematoxylin-eosin staining based microscopy; format: organism-based; conditions: in vivo, 744 h, time 31 day
NCI/ADR-RES = experiment: cells; conditions: Homo sapiens, 48 h
Description: Antiproliferative activity against human MCF7ADR cells assessed as cell growth inhibition incubated for 48 hrs by MTT assay

Chain of Tyrosine-protein kinase JAK1 (P23458 whole entry): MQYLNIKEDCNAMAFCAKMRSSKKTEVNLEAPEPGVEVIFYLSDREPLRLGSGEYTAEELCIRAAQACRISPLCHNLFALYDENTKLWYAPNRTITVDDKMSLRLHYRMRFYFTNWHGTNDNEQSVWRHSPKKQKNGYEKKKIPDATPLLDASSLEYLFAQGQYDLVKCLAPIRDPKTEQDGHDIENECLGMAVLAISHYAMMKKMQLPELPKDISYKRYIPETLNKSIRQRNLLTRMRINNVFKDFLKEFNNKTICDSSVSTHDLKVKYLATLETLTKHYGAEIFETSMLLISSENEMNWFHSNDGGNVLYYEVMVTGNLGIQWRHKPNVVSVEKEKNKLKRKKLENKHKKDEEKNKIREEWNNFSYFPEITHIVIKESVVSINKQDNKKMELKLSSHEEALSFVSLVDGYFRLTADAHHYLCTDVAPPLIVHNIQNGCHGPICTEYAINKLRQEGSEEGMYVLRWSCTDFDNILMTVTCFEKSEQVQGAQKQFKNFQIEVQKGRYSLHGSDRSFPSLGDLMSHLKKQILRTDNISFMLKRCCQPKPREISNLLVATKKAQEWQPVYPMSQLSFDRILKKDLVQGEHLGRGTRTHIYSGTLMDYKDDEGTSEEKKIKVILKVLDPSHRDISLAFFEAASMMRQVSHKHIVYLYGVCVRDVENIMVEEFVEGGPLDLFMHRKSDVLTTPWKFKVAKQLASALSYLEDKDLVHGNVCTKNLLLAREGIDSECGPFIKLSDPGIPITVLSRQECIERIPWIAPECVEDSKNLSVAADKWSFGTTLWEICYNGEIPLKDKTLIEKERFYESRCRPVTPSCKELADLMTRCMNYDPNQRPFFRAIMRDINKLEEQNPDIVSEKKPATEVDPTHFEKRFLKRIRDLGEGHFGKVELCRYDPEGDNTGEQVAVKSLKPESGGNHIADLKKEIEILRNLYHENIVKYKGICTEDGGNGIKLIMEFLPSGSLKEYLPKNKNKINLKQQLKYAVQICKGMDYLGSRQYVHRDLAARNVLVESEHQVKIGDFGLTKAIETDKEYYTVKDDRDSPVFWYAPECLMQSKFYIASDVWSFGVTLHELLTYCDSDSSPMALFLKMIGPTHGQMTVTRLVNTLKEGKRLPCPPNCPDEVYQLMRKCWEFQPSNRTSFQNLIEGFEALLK
Chain of Tyrosine-protein kinase JAK3 (P52333 whole entry): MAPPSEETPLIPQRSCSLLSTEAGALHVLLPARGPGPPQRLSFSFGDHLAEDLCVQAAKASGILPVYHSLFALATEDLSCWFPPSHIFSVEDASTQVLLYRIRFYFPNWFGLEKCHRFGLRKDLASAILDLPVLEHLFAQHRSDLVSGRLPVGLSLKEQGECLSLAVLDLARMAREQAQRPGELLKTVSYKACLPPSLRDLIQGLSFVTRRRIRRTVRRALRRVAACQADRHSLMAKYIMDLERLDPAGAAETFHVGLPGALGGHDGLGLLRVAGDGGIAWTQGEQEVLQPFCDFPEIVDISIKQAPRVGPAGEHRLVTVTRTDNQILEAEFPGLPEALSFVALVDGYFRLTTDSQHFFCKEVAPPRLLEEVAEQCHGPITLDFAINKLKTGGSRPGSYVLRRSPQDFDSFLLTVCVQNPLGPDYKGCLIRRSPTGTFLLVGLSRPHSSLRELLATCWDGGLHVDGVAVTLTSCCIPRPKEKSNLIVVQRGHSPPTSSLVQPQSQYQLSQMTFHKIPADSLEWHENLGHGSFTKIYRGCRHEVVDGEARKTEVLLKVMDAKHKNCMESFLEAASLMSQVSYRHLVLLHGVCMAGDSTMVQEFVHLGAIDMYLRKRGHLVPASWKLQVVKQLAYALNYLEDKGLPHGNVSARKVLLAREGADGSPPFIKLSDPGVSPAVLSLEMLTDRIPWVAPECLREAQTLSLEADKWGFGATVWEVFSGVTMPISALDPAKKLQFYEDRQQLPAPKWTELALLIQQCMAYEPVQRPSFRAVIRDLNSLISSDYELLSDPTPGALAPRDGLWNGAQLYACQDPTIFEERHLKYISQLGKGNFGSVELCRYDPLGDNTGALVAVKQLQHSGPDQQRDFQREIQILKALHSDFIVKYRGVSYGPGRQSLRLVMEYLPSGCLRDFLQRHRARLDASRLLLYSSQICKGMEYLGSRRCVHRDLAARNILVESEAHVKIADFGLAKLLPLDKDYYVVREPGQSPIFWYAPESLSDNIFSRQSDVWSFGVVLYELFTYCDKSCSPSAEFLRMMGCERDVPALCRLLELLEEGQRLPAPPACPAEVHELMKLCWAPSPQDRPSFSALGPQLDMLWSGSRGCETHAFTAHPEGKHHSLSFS

## COc1cc(-c2nccc3nc(Nc4cccc5[nH]ccc45)nn23)cc(OC)c1OC
HeLa
  IC50: 15 nM
BXPC-3
  IC50: 11 nM
[1]
  IC50: > 20000 nM
[2]
  IC50: 12200 nM
[3]
  IC50 at 48 h: 5030 nM
[4]
  IC50 at 48 h: 450 nM
[5]
  IC50: 49 nM
[6]
  IC50: 36 nM
[7]
  Ratio IC50: 0.3
PC-3
  IC50: 224 nM
[8]
  IC50 at 48 h: 130 nM
[9]
  AUC(0-inf): 390 ng·h/mL
[10]
  half-life: 6 h
[11]
  Cmax: 117 ng/mL
[12]
  AUC(0-t) at 24 h: 559 ng·h/mL
[13]
  AUC: 2604.3 ng·h/mL
[14]
  MRT(t): 3.5 h
[15]
  MRT: 4 h
Tubulin
  IC50: 1300 nM
Tubulin (Homo sapiens)
  Activity: Active
[16]
  inhibition: Dose-Dependent Effect
[17]
  inhibition: Dose-Dependent Effect
A549 [18]
  Activity: 15.6%
A549 [19]
  Activity: 32.9%
A549 [20]
  Activity: 27.3%
A549 [21]
  Activity: 1.78%
A549 [22]
  Activity: 50.8%
A549 [23]
  Activity: 2.6%
A549 [24]
  Activity: 5.26%
A549 [25]
  Activity: Active
A549 [26]
  Activity: Active
A549 [27]
  Activity: Dose-Dependent Effect
A549 [28]
  Activity: 15.4%
A549 [29]
  Activity: 315.8 mm3
[30]
  Activity: Non-Toxic
[31]
  Activity: Non-Toxic
NCI/ADR-RES
  IC50: 64 nM
